Assay results published in patent US8198273B2, “Compounds and methods for kinase modulation, and indications therefor” (Plexxikon Inc., priority 2009, dated 2012).

Key:
CYP3A4(BFC) = CYP3A4(BFC) (Homo sapiens, UniProt P08684); assay: CYP3A4(BFC) inhibition (fluorescent substrate); type: in vitro ADME; conditions: read-out: Cyp IC50 3A4(BFC)
Method in brief: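 Inhibition was followed as loss of fluorescent metabolite from a known substrate, with compound in co-factor mix as a 10-point 1:1 serial dilution (100 mM DMSO stock).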

B-Raf V600E = B-Raf V600E (Homo sapiens, UniProt P15056, V600E); assay: B-Raf V600E biochemical kinase inhibition (AlphaScreen, biotin-MEK1 substrate); conditions: 100 μM ATP
Method in brief: (§1)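 IC50 derived from AlphaScreen signal plotted against compound concentration. Final ATP 100 μM; 3 h incubation at room temperature. Eight-point 3-fold dilution series prepared from a 0.1 mM DMSO stock.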

CYP1A2 = target: T1, CYP1A2 (Homo sapiens, UniProt P05177); assay: CYP1A2 inhibition (fluorescent substrate); type: in vitro ADME; conditions: CYP1A2, CEC substrate; read-out: Cyp IC50 1A2
T1 sequence (P05177 1-516): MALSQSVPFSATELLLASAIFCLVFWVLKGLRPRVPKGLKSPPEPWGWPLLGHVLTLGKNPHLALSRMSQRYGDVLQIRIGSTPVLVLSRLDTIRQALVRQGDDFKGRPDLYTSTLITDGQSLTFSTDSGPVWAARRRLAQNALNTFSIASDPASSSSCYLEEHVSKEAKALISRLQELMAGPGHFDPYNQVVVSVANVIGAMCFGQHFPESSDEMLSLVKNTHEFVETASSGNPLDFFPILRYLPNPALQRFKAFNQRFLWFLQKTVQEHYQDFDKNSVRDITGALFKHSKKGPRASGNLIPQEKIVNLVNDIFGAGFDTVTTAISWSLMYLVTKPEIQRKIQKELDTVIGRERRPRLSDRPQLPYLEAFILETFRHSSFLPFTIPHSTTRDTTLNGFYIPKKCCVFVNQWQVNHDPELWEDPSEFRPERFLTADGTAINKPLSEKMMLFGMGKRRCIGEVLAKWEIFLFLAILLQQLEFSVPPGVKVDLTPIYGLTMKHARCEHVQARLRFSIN
Method in brief: (§2)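 IC50 values come from plotting product fluorescence against compound concentration; inhibition lowers formation of the fluorescent metabolite. Ten-point twofold dilutions in co-factor mix were held 10 minutes at 37 °C before the enzyme reaction, also run at 37 °C.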

CYP2C19 = CYP2C19 (Homo sapiens, UniProt P33261); assay: CYP2C19 inhibition (fluorescent substrate); type: in vitro ADME; conditions: CYP2C19, CEC substrate; read-out: Cyp IC50 2C19
Method in brief: as §2

[1] = Relative solubility by turbidity in aqueous buffers of varying pH; type: physicochemical; conditions: for turbidity threshold (L, M, H) 7.4: HEPES pH 7.4; for turbidity threshold (L, M, H) 4.5: SIF pH 4.5; for turbidity threshold (L, M, H) 6.8: SIF pH 6.8; for turbidity threshold (L, M, H) 1.4: buffer pH 1.4 (SGF)
Method in brief: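 Turbidity endpoint: concentration where optical density at 490, 535 and 650 nm exceeds 0.01, three-wavelength average used. Buffers at pH 1.5, 4.5, 6.8 and 7.4; DMSO serial dilutions of 25 mM stock spiked 1 μL into 99 μL buffer. Low <31.3, moderate 31.3–250, high >250 μM.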

B-Raf = B-Raf (Homo sapiens, UniProt P15056); assay: B-Raf biochemical kinase inhibition (AlphaScreen, biotin-MEK1 substrate); conditions: 100 μM ATP
Method in brief: as §1

B-Raf V600E, sequence (P15056 whole entry V600E): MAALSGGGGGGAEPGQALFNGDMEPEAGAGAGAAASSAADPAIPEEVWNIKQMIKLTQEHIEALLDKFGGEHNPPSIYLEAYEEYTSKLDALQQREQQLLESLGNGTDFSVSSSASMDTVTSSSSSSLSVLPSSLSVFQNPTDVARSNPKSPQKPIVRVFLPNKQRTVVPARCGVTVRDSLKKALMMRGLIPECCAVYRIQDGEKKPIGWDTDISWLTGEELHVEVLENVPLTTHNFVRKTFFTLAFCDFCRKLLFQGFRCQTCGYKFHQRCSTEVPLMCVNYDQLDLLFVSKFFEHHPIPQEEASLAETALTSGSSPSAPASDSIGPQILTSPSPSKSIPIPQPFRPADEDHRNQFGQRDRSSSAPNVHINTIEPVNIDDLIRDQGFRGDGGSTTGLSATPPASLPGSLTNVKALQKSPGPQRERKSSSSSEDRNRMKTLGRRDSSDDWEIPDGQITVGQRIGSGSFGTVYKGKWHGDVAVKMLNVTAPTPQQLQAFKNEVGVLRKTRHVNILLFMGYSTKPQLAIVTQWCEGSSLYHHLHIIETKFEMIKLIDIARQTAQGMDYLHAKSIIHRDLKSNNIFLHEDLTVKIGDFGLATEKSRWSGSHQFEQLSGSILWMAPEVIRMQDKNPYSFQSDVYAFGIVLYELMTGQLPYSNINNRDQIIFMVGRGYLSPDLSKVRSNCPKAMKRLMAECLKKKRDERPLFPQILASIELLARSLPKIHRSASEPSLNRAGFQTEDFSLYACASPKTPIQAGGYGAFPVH
CYP2C19, sequence (P33261 whole entry): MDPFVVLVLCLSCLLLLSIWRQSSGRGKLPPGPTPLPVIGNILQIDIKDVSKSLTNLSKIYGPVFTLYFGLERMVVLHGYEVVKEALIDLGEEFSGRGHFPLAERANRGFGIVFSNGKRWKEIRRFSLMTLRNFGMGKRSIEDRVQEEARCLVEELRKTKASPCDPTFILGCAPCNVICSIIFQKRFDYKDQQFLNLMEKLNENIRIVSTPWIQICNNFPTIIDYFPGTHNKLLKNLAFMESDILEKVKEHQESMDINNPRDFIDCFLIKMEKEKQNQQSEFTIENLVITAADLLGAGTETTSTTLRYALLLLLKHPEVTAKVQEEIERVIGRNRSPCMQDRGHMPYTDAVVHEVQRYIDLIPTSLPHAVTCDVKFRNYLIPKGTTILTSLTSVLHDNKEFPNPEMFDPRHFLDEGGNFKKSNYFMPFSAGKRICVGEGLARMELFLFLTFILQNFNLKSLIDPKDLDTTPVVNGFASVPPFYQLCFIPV
B-Raf, sequence (P15056 whole entry): as the sequence (P15056 whole entry V600E) above, with E600V counted along it
CYP3A4(BFC), sequence (P08684 whole entry): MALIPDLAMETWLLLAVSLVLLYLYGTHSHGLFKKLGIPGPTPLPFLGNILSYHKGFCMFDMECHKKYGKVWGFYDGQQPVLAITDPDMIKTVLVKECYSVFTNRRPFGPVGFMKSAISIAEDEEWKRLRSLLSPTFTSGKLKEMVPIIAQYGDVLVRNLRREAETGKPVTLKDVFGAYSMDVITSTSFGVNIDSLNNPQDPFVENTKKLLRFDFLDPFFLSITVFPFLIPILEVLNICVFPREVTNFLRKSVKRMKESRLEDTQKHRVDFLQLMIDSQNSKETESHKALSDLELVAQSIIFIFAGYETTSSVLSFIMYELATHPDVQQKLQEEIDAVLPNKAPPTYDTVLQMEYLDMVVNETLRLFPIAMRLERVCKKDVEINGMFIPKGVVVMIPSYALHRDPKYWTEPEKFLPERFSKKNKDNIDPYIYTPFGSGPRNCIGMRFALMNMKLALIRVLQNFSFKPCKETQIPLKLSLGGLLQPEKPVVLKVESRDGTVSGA

IC50 (CYP3A4(BFC)) | IC50 (B-Raf V600E) | IC50 (CYP1A2) | IC50 (CYP2C19) | IC50 (B-Raf) | SMILES | turbidity threshold (L, M, H) 7.4 [1] | turbidity threshold (L, M, H) 4.5 [1] | turbidity threshold (L, M, H) 6.8 [1] | turbidity threshold (L, M, H) 1.4 [1]
> 10 µM | < 0.01 µM | < 5 µM | 5 to 10 µM | < 0.01 µM | CCCS(=O)(=O)Nc1ccc(F)c(C(=O)c2c[nH]c3ncc(-c4ccc(N5CCCC5)nc4)cc23)c1F [P-2231, Propane-1-sulfonic acid {2,4-difluoro-3-[5-(6-pyrrolidin-1-yl-pyridin-3-yl)-1H-pyrrolo[2,3-b]pyridine-3-carbonyl]-phenyl}-amide] | L (low solubility if the threshold concentration is <31.3 04) | L (low solubility if the threshold concentration is <31.3 04) | L (low solubility if the threshold concentration is <31.3 04) | L (low solubility if the threshold concentration is <31.3 04)
> 10 µM | < 0.01 µM | > 10 µM | > 10 µM | < 0.01 µM | CCCS(=O)(=O)Nc1ccc(F)c(C(=O)c2c[nH]c3ncc(-c4ccc(OCCN5CCOCC5)nc4)cc23)c1F [P-2232, Propane-1-sulfonic acid (2,4-difluoro-3-{5-[6-(2-morpholin-4-yl-ethoxy)-pyridin-3-yl]-1H-pyrrolo[2,3-b]pyridine-3-carbonyl}-phenyl)-amide] | L (low solubility if the threshold concentration is <31.3 04) | M (moderate solubility if the threshold concentration is 31.3 μM to 250 μM) | L (low solubility if the threshold concentration is <31.3 04) | M (moderate solubility if the threshold concentration is 31.3 μM to 250 μM)
> 10 µM | < 0.01 µM | > 10 µM | 5 to 10 µM | < 0.01 µM | CCCS(=O)(=O)Nc1ccc(F)c(C(=O)c2c[nH]c3ncc(-c4ccc(OCCN5CCCC5)nc4)cc23)c1F [P-2233, Propane-1-sulfonic acid (2,4-difluoro-3-{5-[6-(2-pyrrolidin-1-yl-ethoxy)-pyridin-3-yl]-1H-pyrrolo[2,3-b]pyridine-3-carbonyl}-phenyl)-amide] | M (moderate solubility if the threshold concentration is 31.3 μM to 250 μM) | M (moderate solubility if the threshold concentration is 31.3 μM to 250 μM) | L (low solubility if the threshold concentration is <31.3 04) | L (low solubility if the threshold concentration is <31.3 04)
> 10 µM | < 0.01 µM | > 10 µM | < 5 µM | < 0.01 µM | CCCS(=O)(=O)Nc1ccc(F)c(C(=O)c2c[nH]c3ncc(-c4ccc(OCCCN5CCCC5)nc4)cc23)c1F [P-2235, Propane-1-sulfonic acid (2,4-difluoro-3-{5-[6-(3-pyrrolidin-1-yl-propoxy)-pyridin-3-yl]-1H-pyrrolo[2,3-b]pyridine-3-carbonyl}-phenyl)-amide] | L (low solubility if the threshold concentration is <31.3 04) | M (moderate solubility if the threshold concentration is 31.3 μM to 250 μM) | L (low solubility if the threshold concentration is <31.3 04) | L (low solubility if the threshold concentration is <31.3 04)
< 5 µM | < 0.01 µM | > 10 µM | < 5 µM | < 0.01 µM | CCCS(=O)(=O)Nc1ccc(F)c(C(=O)c2c[nH]c3ncc(-c4ccc(OCCCN5CCOCC5)nc4)cc23)c1F [P-2236, Propane-1-sulfonic acid (2,4-difluoro-3-{5-[6-(3-morpholin-4-yl-propoxy)-pyridin-3-yl]-1H-pyrrolo[2,3-b]pyridine-3-carbonyl}-phenyl)-amide] | L (low solubility if the threshold concentration is <31.3 04) | M (moderate solubility if the threshold concentration is 31.3 μM to 250 μM) | L (low solubility if the threshold concentration is <31.3 04) | M (moderate solubility if the threshold concentration is 31.3 μM to 250 μM)

The next lines start with the compound.

SMILES | IC50 (CYP3A4(BFC)) | IC50 (B-Raf V600E) | IC50 (CYP1A2) | IC50 (CYP2C19) | IC50 (B-Raf) | turbidity threshold (L, M, H) 7.4 [1] | turbidity threshold (L, M, H) 4.5 [1] | turbidity threshold (L, M, H) 6.8 [1] | turbidity threshold (L, M, H) 1.4 [1]
CCCS(=O)(=O)Nc1ccc(F)c(C(=O)c2c[nH]c3ncc(-c4ccc(C)nc4)cc23)c1F [P-2213, Propane-1-sulfonic acid {2,4-difluoro-3-[5-(6-methyl-pyridin-3-yl)-1H-pyrrolo[2,3-b]pyridine-3-carbonyl]-phenyl}-amide] | > 10 µM | < 0.01 µM | > 10 µM | > 10 µM | < 0.01 µM | L (low solubility if the threshold concentration is <31.3 04) | M (moderate solubility if the threshold concentration is 31.3 μM to 250 μM) | L (low solubility if the threshold concentration is <31.3 04) | H (high solubility if the threshold concentration is >250 μM)
CCCS(=O)(=O)Nc1ccc(F)c(C(=O)c2c[nH]c3ncc(-c4ccc(C#CCN(CC)CC)nc4)cc23)c1F [P-2222, Propane-1-sulfonic acid (3-{5-[6-(3-diethylamino-prop-1-ynyl)-pyridin-3-yl]-1H-pyrrolo[2,3-b]pyridine-3-carbonyl}-2,4-difluoro-phenyl)-amide] | > 10 µM | < 0.01 µM | > 10 µM | < 5 µM | < 0.01 µM | L (low solubility if the threshold concentration is <31.3 04) | L (low solubility if the threshold concentration is <31.3 04) | L (low solubility if the threshold concentration is <31.3 04) | L (low solubility if the threshold concentration is <31.3 04)
CCCS(=O)(=O)Nc1ccc(F)c(C(=O)c2c[nH]c3ncc(-c4ccc(CCCOC)nc4)cc23)c1F [P-2226, Propane-1-sulfonic acid (2,4-difluoro-3-{5-[6-(3-methoxy-propyl)-pyridin-3-yl]-1H-pyrrolo[2,3-b]pyridine-3-carbonyl}-phenyl)-amide] | > 10 µM | < 0.01 µM | > 10 µM | > 10 µM | < 0.01 µM | L (low solubility if the threshold concentration is <31.3 04) | L (low solubility if the threshold concentration is <31.3 04) | L (low solubility if the threshold concentration is <31.3 04) | H (high solubility if the threshold concentration is >250 μM)
CCCS(=O)(=O)Nc1ccc(F)c(C(=O)c2c[nH]c3ncc(C#CCOC)cc23)c1F [P-2239, Propane-1-sulfonic acid {2,4-difluoro-3-[5-(3-methoxy-prop-1-ynyl)-1H-pyrrolo[2,3-b]pyridine-3-carbonyl]-phenyl}-amide] | 5 to 10 µM | < 0.01 µM | > 10 µM | 5 to 10 µM | < 0.1 µM | M (moderate solubility if the threshold concentration is 31.3 μM to 250 μM) | M (moderate solubility if the threshold concentration is 31.3 μM to 250 μM) | L (low solubility if the threshold concentration is <31.3 04) | L (low solubility if the threshold concentration is <31.3 04)
C#Cc1cnc2[nH]cc(C(=O)c3c(F)ccc(NS(=O)(=O)CCC)c3F)c2c1 [P-2260, Propane-1-sulfonic acid [3-(5-ethynyl-1H-pyrrolo[2,3-b]pyridine-3-carbonyl)-2,4-difluoro-phenyl]-amide] | < 5 µM | < 0.01 µM | > 10 µM | 5 to 10 µM | < 0.01 µM | L (low solubility if the threshold concentration is <31.3 04) | L (low solubility if the threshold concentration is <31.3 04) | L (low solubility if the threshold concentration is <31.3 04) | L (low solubility if the threshold concentration is <31.3 04)
